“Also recorded” adds a separate entry of the source.
Columns and labels:
tobacco leaves = assay: Control infiltration of tobacco leaves with compounds alone (necrosis); details: compound at the final 1 mM concentration, no NLP protein, 5 % DMSO (Figure 4)
Procedure: This biological test may be used to assess the impact of compounds on the functionality of NLPs. The NLP protein solution is injected in the absence or presence of the compounds into tobacco leaves of healthy plants. The plants are then observed for 1-3 days and checked for the presence of necrosis.
Compounds: Compounds were prepared as stock solutions with a concentration of 10 mM in DMSO. Appropriate working solutions were prepared by appropriate dilution of the stock solution. The concentration of DMSO in the test solution was 5 %.
Tobacco plants: Tobacco plants (Nicotiana tabacum White Burley) were cultured in chambers for growing plants under controlled conditions of light, humidity and temperature up to the age of 5-7 weeks.
Protein solution, compound and appropriate volume of ultrapure water were mixed in Eppendorf tubes. The mixture was mixed well and injected in the lower epidermis of tobacco leaves. We have injected 50 µL of solution. The area of injected solution was labelled on tobacco leaves. We used ultrapure water, 5 % DMSO, protein solutions of NLPs at different concentrations and appropriate dilutions of compounds as control solutions. The area on the lower side of the leaf, which was infiltrated with solutions, was photographed immediately after injection, and then after 24, 48 and 72 hours. On the third day the plant leaf was photographed also from the top side.

Phytophthora infestans = format: in vivo, Phytophthora infestans (strain 88069); details: for growth of the pathogen P. infestans on potato leaves, visual analysis: 1 mM compound in 10 µL drops with 5 × 10^4 mL^-1 zoospores, 4 days, 18 °C, vs control compound (Figure 6A); for amount of pathogen DNA by real-time PCR, control samples vs samples with compound: 1 mM compound, potato leaves 4 days after infection, Student's t-test, *** P <0.001 (Figure 6B)

Row | SMILES | necrosis of tobacco leaves caused by compound solution alone (tobacco leaves) | growth of the pathogen P. infestans on potato leaves, visual analysis (Phytophthora infestans) | amount of pathogen DNA by real-time PCR, control samples vs samples with compound (Phytophthora infestans)
1 | COc1ccc(Nc2ccccc2C(=O)O)cc1 [Compound IIa, 2-[(4-methoxyphenyl)amino]benzoic acid] | did not cause necrosis; also recorded: Necrosis was not caused | able to inhibit growth of the pathogen | statistically significant amounts of pathogen DNA in control samples
2 | Cc1ccc2occ(C3NC(C(=O)O)CS3)c(=O)c2c1 (stereo not drawn) [Compound I, 2-(6-methyl-4-oxochromen-3-yl)-1,3-thiazolidin-3-ium-4-carboxylate] | did not cause necrosis; also recorded: Necrosis was not caused | able to inhibit growth of the pathogen | statistically significant amounts of pathogen DNA in control samples
